The assay deals with HEK293 cells. The assay is described as follows: Preliminary screening as mRNA vectors, EGFP mRNA transfection of HEK293 cells. The conditions noted are these: EGFP mRNA 50 ng per well, 96-well plates; percentage of GFP fluorescent cells relative to total number of cells (Hoechst). The format is cell-based. The gist of the method:
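Screening format: EGFP mRNA transfection (50 ng/well) into HEK293 in 10% FBS-supplemented DMEM. Percent green fluorescent cells, normalised to Hoechst nuclear count, gave the value; Lipofectamine2000 was the reference transfectant.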

`CCCCCCCCCCCCCCCCNc1nc(NCCN(CC)CC)nc(SCCCCCCC)n1` [Compound D7S7N16]: the “Absolute mRNA transfection efficiency in HEK293 cells” value (shortened to “Absolute mRNA transfection efficiency”) was found to be 12.8%. The same measure for `CCCCCCCCCCCCCCCCCCNc1nc(NCCN(CC)CC)nc(SCCCCCCC)n1` [Compound D7S7N18]: 16.7%; for `CCCCCCCSc1nc(NCCN(CC)CC)nc(SCCCCCCC)n1` [Compound D7S7S7]: 18.4%. Under `CCCCCCCCSc1nc(NCCN(CC)CC)nc(SCCCCCCC)n1` [Compound D7S7S8] stands 42.1%.

Take `CCCCCCCCCSc1nc(NCCN(CC)CC)nc(SCCCCCCC)n1` [Compound D7S7S9]: the “Absolute mRNA transfection efficiency” value amounted to 13.5%.

For `CCCCCCCCCCSc1nc(NCCN(CC)CC)nc(SCCCCCCC)n1` [Compound D7S7S10], the “Absolute mRNA transfection efficiency” value is given as 1.7%. The same measure for `CCCCCCCCCCCSc1nc(NCCN(CC)CC)nc(SCCCCCCC)n1` [Compound D7S7S11]: 4.5%; for `CCCCCCCCCCCCSc1nc(NCCN(CC)CC)nc(SCCCCCCC)n1` [Compound D7S7S12]: 5.8%; for `CCCCCCCCCCCCCCSc1nc(NCCN(CC)CC)nc(SCCCCCCC)n1` [Compound D7S7S14]: 4.1%. Under `CCCCCCCCCCCCCCCSc1nc(NCCN(CC)CC)nc(SCCCCCCC)n1` [Compound D7S7S15] stands 5.4%. The same measure for `CCCCCCCCCCCCCCCCSc1nc(NCCN(CC)CC)nc(SCCCCCCC)n1` [Compound D7S7S16]: 10.7%; for `CCCCCCCCCCCCCCCCCCSc1nc(NCCN(CC)CC)nc(SCCCCCCC)n1` [Compound D7S7S18]: 7.1%. Regarding `CCCCCCCCSc1nc(NCCCCCC)nc(NCCN(CC)CC)n1` [Compound D7S8N6], the “Absolute mRNA transfection efficiency” value is 0.8%. Under `CCCCCCCCSc1nc(NCCCCCCC)nc(NCCN(CC)CC)n1` [Compound D7S8N7] stands 0.7%.

Regarding `CCCCCCCCNc1nc(NCCN(CC)CC)nc(SCCCCCCCC)n1` [Compound D7S8N8], the “Absolute mRNA transfection efficiency” value is 2.5%. For `CCCCCCCCCNc1nc(NCCN(CC)CC)nc(SCCCCCCCC)n1` [Compound D7S8N9], the “Absolute mRNA transfection efficiency” value is reported as 9.5%. The same measure for `CCCCCCCCCCCNc1nc(NCCN(CC)CC)nc(SCCCCCCCC)n1` [Compound D7S8N11]: 9.0%; for `CCCCCCCCCCCCNc1nc(NCCN(CC)CC)nc(SCCCCCCCC)n1` [Compound D7S8N12]: 9.5%.

Take `CCCCCCCCCCCCCNc1nc(NCCN(CC)CC)nc(SCCCCCCCC)n1` [Compound D7S8N13]: the “Absolute mRNA transfection efficiency” value is on record as 14.2%. The same measure for `CCCCCCCCCCCCCCCNc1nc(NCCN(CC)CC)nc(SCCCCCCCC)n1` [Compound D7S8N15]: 15.7%; for `CCCCCCCCCCCCCCCCNc1nc(NCCN(CC)CC)nc(SCCCCCCCC)n1` [Compound D7S8N16]: 16.8%. Under `CCCCCCCCCCCCCCCCCCNc1nc(NCCN(CC)CC)nc(SCCCCCCCC)n1` [Compound D7S8N18] stands 12.8%. Under `CCCCCCCCSc1nc(NCCN(CC)CC)nc(SCCCCCCCC)n1` [Compound D7S8S8] stands 25.3%; under `CCCCCCCCCSc1nc(NCCN(CC)CC)nc(SCCCCCCCC)n1` [Compound D7S8S9], 11.1%; under `CCCCCCCCCCSc1nc(NCCN(CC)CC)nc(SCCCCCCCC)n1` [Compound D7S8S10], 7.6%. Turning to `CCCCCCCCCCCSc1nc(NCCN(CC)CC)nc(SCCCCCCCC)n1` [Compound D7S8S11], the “Absolute mRNA transfection efficiency” value is reported as 3.2%. As to `CCCCCCCCCCCCSc1nc(NCCN(CC)CC)nc(SCCCCCCCC)n1` [Compound D7S8S12], the “Absolute mRNA transfection efficiency” value worked out at 1.3%.

As to `CCCCCCCCCSc1nc(NCCCCCC)nc(NCCN(CC)CC)n1` [Compound D7S9N6], the “Absolute mRNA transfection efficiency” value is reported as 0.6%. As to `CCCCCCCCCSc1nc(NCCCCCCC)nc(NCCN(CC)CC)n1` [Compound D7S9N7], the “Absolute mRNA transfection efficiency” value was determined as 1.6%. Under `CCCCCCCCCSc1nc(NCCCCCCCC)nc(NCCN(CC)CC)n1` [Compound D7S9N8] stands 11.1%; under `CCCCCCCCCNc1nc(NCCN(CC)CC)nc(SCCCCCCCCC)n1` [Compound D7S9N9], 17.8%. The same measure for `CCCCCCCCCCCNc1nc(NCCN(CC)CC)nc(SCCCCCCCCC)n1` [Compound D7S9N11]: 36.8%; for `CCCCCCCCCCCCNc1nc(NCCN(CC)CC)nc(SCCCCCCCCC)n1` [Compound D7S9N12]: 25.6%. With `CCCCCCCCCCCCCNc1nc(NCCN(CC)CC)nc(SCCCCCCCCC)n1` [Compound D7S9N13], the “Absolute mRNA transfection efficiency” value is recorded as 33.4%. Consider `CCCCCCCCCCCCCCCNc1nc(NCCN(CC)CC)nc(SCCCCCCCCC)n1` [Compound D7S9N15], for which the “Absolute mRNA transfection efficiency” value was found to be 11.7%.

With `CCCCCCCCCCCCCCCCNc1nc(NCCN(CC)CC)nc(SCCCCCCCCC)n1` [Compound D7S9N16], the “Absolute mRNA transfection efficiency” value was found to be 10.9%. Take `CCCCCCCCCCCCCCCCCCNc1nc(NCCN(CC)CC)nc(SCCCCCCCCC)n1` [Compound D7S9N18]: the “Absolute mRNA transfection efficiency” value is listed as 21.1%. The same measure for `CCCCCCCCCCSc1nc(NCCCCCC)nc(NCCN(CC)CC)n1` [Compound D7S10N6]: 0.6%; for `CCCCCCCCCCSc1nc(NCCCCCCC)nc(NCCN(CC)CC)n1` [Compound D7S10N7]: 1.2%.

Regarding `CCCCCCCCCCSc1nc(NCCCCCCCC)nc(NCCN(CC)CC)n1` [Compound D7S10N8], the “Absolute mRNA transfection efficiency” value is 0.3%. The same measure for `CCCCCCCCCCSc1nc(NCCCCCCCCC)nc(NCCN(CC)CC)n1` [Compound D7S10N9]: 1.6%. Consider `CCCCCCCCCCCNc1nc(NCCN(CC)CC)nc(SCCCCCCCCCC)n1` [Compound D7S10N11], for which the “Absolute mRNA transfection efficiency” value is reported as 3.1%. Turning to `CCCCCCCCCCCCNc1nc(NCCN(CC)CC)nc(SCCCCCCCCCC)n1` [Compound D7S10N12], the “Absolute mRNA transfection efficiency” value stood at 10.6%.

`CCCCCCCCCCCCCNc1nc(NCCN(CC)CC)nc(SCCCCCCCCCC)n1` [Compound D7S10N13]: the “Absolute mRNA transfection efficiency” value worked out at 13.7%. Under `CCCCCCCCCCCCCCCNc1nc(NCCN(CC)CC)nc(SCCCCCCCCCC)n1` [Compound D7S10N15] stands 2.0%; under `CCCCCCCCCCCCCCCCNc1nc(NCCN(CC)CC)nc(SCCCCCCCCCC)n1` [Compound D7S10N16], 19.3%; under `CCCCCCCCCCCCCCCCCCNc1nc(NCCN(CC)CC)nc(SCCCCCCCCCC)n1` [Compound D7S10N18], 25.9%. The same measure for `CCCCCCCCCCCSc1nc(NCCCCCC)nc(NCCN(CC)CC)n1` [Compound D7S11N6]: 4.3%; for `CCCCCCCCCCCSc1nc(NCCCCCCC)nc(NCCN(CC)CC)n1` [Compound D7S11N7]: 11.8%. The same measure for `CCCCCCCCCCCSc1nc(NCCCCCCCC)nc(NCCN(CC)CC)n1` [Compound D7S11N8]: 13.4%; for `CCCCCCCCCCCSc1nc(NCCCCCCCCC)nc(NCCN(CC)CC)n1` [Compound D7S11N9]: 5.0%. For the molecule `CCCCCCCCCCCNc1nc(NCCN(CC)CC)nc(SCCCCCCCCCCC)n1` [Compound D7S11N11], the “Absolute mRNA transfection efficiency” value was determined as 35.0%. In the case of `CCCCCCCCCCCCNc1nc(NCCN(CC)CC)nc(SCCCCCCCCCCC)n1` [Compound D7S11N12], the “Absolute mRNA transfection efficiency” value came out at 7.8%. Take `CCCCCCCCCCCCCNc1nc(NCCN(CC)CC)nc(SCCCCCCCCCCC)n1` [Compound D7S11N13]: the “Absolute mRNA transfection efficiency” value stood at 5.8%. Under `CCCCCCCCCCCCCCCNc1nc(NCCN(CC)CC)nc(SCCCCCCCCCCC)n1` [Compound D7S11N15] stands 6.5%; under `CCCCCCCCCCCCCCCCNc1nc(NCCN(CC)CC)nc(SCCCCCCCCCCC)n1` [Compound D7S11N16], 4.4%; under `CCCCCCCCCCCCCCCCCCNc1nc(NCCN(CC)CC)nc(SCCCCCCCCCCC)n1` [Compound D7S11N18], 10.8%.

Regarding `CCCCCCCCCCCCSc1nc(NCCCCCC)nc(NCCN(CC)CC)n1` [Compound D7S12N6], the “Absolute mRNA transfection efficiency” value is listed as 2.1%.

On to `CCCCCCCCCCCCSc1nc(NCCCCCCC)nc(NCCN(CC)CC)n1` [Compound D7S12N7], for which the “Absolute mRNA transfection efficiency” value was 13.1%. The same measure for `CCCCCCCCCCCCSc1nc(NCCCCCCCC)nc(NCCN(CC)CC)n1` [Compound D7S12N8]: 3.0%.

As for `CCCCCCCCCCCCSc1nc(NCCCCCCCCC)nc(NCCN(CC)CC)n1` [Compound D7S12N9], the “Absolute mRNA transfection efficiency” value turned out to be 7.4%. As to `CCCCCCCCCCCCSc1nc(NCCCCCCCCCCC)nc(NCCN(CC)CC)n1` [Compound D7S12N11], the “Absolute mRNA transfection efficiency” value was 4.4%. The same measure for `CCCCCCCCCCCCNc1nc(NCCN(CC)CC)nc(SCCCCCCCCCCCC)n1` [Compound D7S12N12]: 3.7%.
